In general, MIC refers to the smallest concentration in the dilution series that meets the test's criterion for growth inhibition.

Drawing on patent US5643912A, “Pyrazinoic acid esters as anti-mycobacterium avium agents” (The Research Foundation of State University of NY, priority 1996, dated 1997), this text covers MIC for 31 compounds.

Converted amounts (≈) assume the structure as drawn.

Holding throughout (format): cell-based
Experiment [1] has as its system M. avium 101. Put plainly: Broth dilution MIC vs M. avium 101. To be noted: Mycobacterium avium, 7H10 broth, pH 5.8.
The subject of experiment [2] is M. kansasii SWK. Put plainly: Broth dilution MIC vs M. kansasii SWK. To be noted: Mycobacterium kansasii, 7H10 broth, pH 5.8. For orientation: In broth dilution the organism is exposed to a series of concentrations in liquid medium.
Experiment [3] relates to M. tuberculosis 102. Put plainly: Broth dilution MIC vs M. tuberculosis 102. The note with it: Mycobacterium tuberculosis, 102, pH 5.8, M. tuberculosis 102, 7H10 broth, read-out: MIC.
The subject of experiment [4] is M. tuberculosis BUR. The experiment in a line: Broth dilution MIC vs M. tuberculosis BUR. To be noted: Mycobacterium tuberculosis, M. tuberculosis BUR (footnote b), 7H10 broth, pH 5.8.

In the case of `CC(C)COC(=O)c1cnccn1` [Example 49], the figures for the MIC in experiment [1], in experiment [2] and in experiment [3] were 256 µg/mL (≈ 1420 µM), 16 µg/mL (≈ 88.8 µM) and 2 µg/mL (≈ 11.1 µM), respectively.

Take `CCCCCCOC(=O)c1cnc(F)cn1` [Example 28]: the MIC in experiment [1] came out at 64 µg/mL (≈ 283 µM); in experiment [2], 8 µg/mL (≈ 35.4 µM).

As for `CCCCCCC(C)OC(=O)c1cnc(F)cn1` (stereo not drawn) [Example 29], the MIC in experiment [1] was found to be 32 µg/mL (≈ 126 µM); in experiment [2] it was 0.03 µg/mL (≈ 0.118 µM); in experiment [3], 2 µg/mL (≈ 7.86 µM).

In the case of `Cc1ccc(OC(=O)c2cnccn2)cc1` [Example 64], the minimum inhibitory concentration (MIC) in experiment [2] and in experiment [3] was 100 µg/mL (≈ 467 µM) each time.

As for `CCCCCC(C)(CCCCC)OC(=O)c1cnc(Cl)cn1` [Example 45], the MIC in experiment [1] is over 64 µg/mL; in experiment [2], 8 µg/mL (≈ 24.5 µM); in experiment [3] it was 8 µg/mL (≈ 24.5 µM).

Turning to `CC(C)(C)OC(=O)c1cnc(Cl)cn1` [Example 35], the values for the MIC in experiment [1], in experiment [2] and in experiment [3] were 128 µg/mL (≈ 596 µM), under 1 µg/mL and 2 µg/mL (≈ 9.32 µM), respectively.

As for `CCCCCCCCC(C)OC(=O)c1cnc(Cl)cn1` (stereo not drawn) [Example 19], the MIC in experiment [1] is 32 µg/mL (≈ 107 µM); in experiment [2], 0.13 µg/mL (≈ 0.435 µM); in experiment [3], 0.03 µg/mL (≈ 0.1 µM).

As to `CCCCCCCCCCOC(=O)c1cnc(Cl)cn1` [Example 6], the MIC in experiment [1] stood at 32 µg/mL (≈ 107 µM); in experiment [2] it was 0.5 µg/mL (≈ 1.67 µM); in experiment [3] it was 0.5 µg/mL (≈ 1.67 µM).

Take `CCCCCCCCC(C)(CCCC)OC(=O)c1cnc(Cl)cn1` (stereo not drawn) [Example 38]: the minimum inhibitory concentration (MIC) in experiment [1] was over 64 µg/mL; in experiment [2], over 16 µg/mL; in experiment [3], 16 µg/mL (≈ 45.1 µM).

With `CC(C)COC(=O)c1cnc(Cl)cn1` [Example 34], the MIC was 64 µg/mL (≈ 298 µM) in experiment [1], under 1 µg/mL in experiment [2] and 2 µg/mL (≈ 9.32 µM) in experiment [3].

Turning to `CCCCCCOC(=O)c1cnc(Cl)cn1` [Example 13], the figures for the MIC in experiment [1], in experiment [2] and in experiment [3] were 32 µg/mL (≈ 132 µM), under 0.03 µg/mL and 0.13 µg/mL (≈ 0.536 µM), respectively.

For the compound `C=CC(C)OC(=O)c1cnc(Cl)cn1` (stereo not drawn) [Example 32], the MIC in experiment [1] was 64 µg/mL (≈ 301 µM); in experiment [2], under 1 µg/mL; in experiment [3] it was 2 µg/mL (≈ 9.41 µM).

With `Cc1cc(C(C)(C)C)c(OC(=O)c2cnccn2)c(C(C)(C)C)c1` [Example 51], the results for the MIC in experiment [1], in experiment [2] and in experiment [3] were over 256 µg/mL, over 16 µg/mL and 128 µg/mL (≈ 392 µM), respectively.

Turning to `CCCCCCCCOC(=O)c1cnc(Cl)cn1` [Example 14], the figures for the MIC in experiment [1], in experiment [2] and in experiment [3] were 16 µg/mL (≈ 59.1 µM), under 0.03 µg/mL and 0.06 µg/mL (≈ 0.222 µM), respectively.

For `CCCOC(=O)c1cnccn1` [Example 43], the MIC in experiment [2] and in experiment [4] was 3 µg/mL (≈ 18.1 µM) throughout.

Take `CCCCCCCCCOC(=O)c1cnc(Cl)cn1` [Example 20]: the MIC in experiment [1] is 32 µg/mL (≈ 112 µM); in experiment [2], under 0.13 µg/mL; in experiment [3], under 0.03 µg/mL.

Consider `C=CCOC(=O)c1cnc(Cl)cn1` [Example 33], for which the MIC was 64 µg/mL (≈ 322 µM) in experiment [1], under 1 µg/mL in experiment [2] and 1 µg/mL (≈ 5.04 µM) in experiment [3].

For `O=C(OCc1ccccc1)c1cnc(Cl)cn1` [Example 30], the results for the MIC in experiment [1], in experiment [2] and in experiment [3] were 8 µg/mL (≈ 32.2 µM), 1 µg/mL (≈ 4.02 µM) and 1 µg/mL (≈ 4.02 µM), respectively.

Regarding `CC1CCC(C(C)C)C(OC(=O)c2cnccn2)C1` (stereo not drawn) [Example 56], the MIC in experiment [3] amounted to 2 µg/mL (≈ 7.62 µM).

Consider `CCCCOCCOCCOC(=O)c1cnc(Cl)cn1` [Example 11], for which the MIC in experiment [1] was 64 µg/mL (≈ 211 µM); in experiment [2], 2 µg/mL (≈ 6.61 µM); in experiment [3] it was 0.5 µg/mL (≈ 1.65 µM).

As for `C=CCOC(=O)c1cnccn1` [Example 42], the MIC in experiment [2] was 3 µg/mL (≈ 18.3 µM); in experiment [4], 6.3 µg/mL (≈ 38.4 µM).

Turning to `O=C(Oc1ccc(F)cc1)c1cnccn1` [Example 3], the MIC in experiment [1] turned out to be 128 µg/mL (≈ 587 µM); in experiment [2] it was 64 µg/mL (≈ 293 µM); in experiment [3], 32 µg/mL (≈ 147 µM).

Consider `O=C(Oc1c(F)c(F)c(F)c(F)c1F)c1cnccn1` [Example 66], for which 25 µg/mL (≈ 86.2 µM) was the least that counted as inhibitory in experiment [2] (MIC).

`CCCCCCCCCCOC(=O)c1cnc(F)cn1` [Example 27]: the MIC in experiment [1] was 32 µg/mL (≈ 113 µM); in experiment [2], 1 µg/mL (≈ 3.54 µM); in experiment [3] it was 2 µg/mL (≈ 7.08 µM).

For the compound `C/C=C/COC(=O)c1cnccn1` [Example 54], in experiment [3], the MIC worked out at 2 µg/mL (≈ 11.2 µM).

With `COC(=O)c1cnc(I)cn1` [Example 39], the MIC in experiment [1] amounted to 256 µg/mL (≈ 970 µM); in experiment [2] it was 8 µg/mL (≈ 30.3 µM); in experiment [3], 16 µg/mL (≈ 60.6 µM).

As for `O=C(Oc1ccc(-c2ccccc2)cc1)c1cnccn1` [Example 67], the MIC in experiment [2] came to 25 µg/mL (≈ 90.5 µM).

For the compound `Cc1cc(C)c(OC(=O)c2cnccn2)c(C)c1` [Example 55], the results for the MIC in experiment [1], in experiment [2] and in experiment [3] were 64 µg/mL (≈ 264 µM), 2 µg/mL (≈ 8.25 µM) and 1 µg/mL (≈ 4.13 µM), respectively.

On to `CCCCCCC(C)(CCCCC)OC(=O)c1cnc(Cl)cn1` (stereo not drawn) [Example 46], for which the MIC in experiment [1] is over 64 µg/mL; in experiment [2], 8 µg/mL (≈ 23.5 µM); in experiment [3], 2 µg/mL (≈ 5.87 µM).

`CCCCCC(C)(CCCC)OC(=O)c1cnc(Cl)cn1` (stereo not drawn) [Example 40]: the values for the MIC in experiment [1], in experiment [2] and in experiment [3] were over 256 µg/mL, 16 µg/mL (≈ 51.1 µM) and 4 µg/mL (≈ 12.8 µM), respectively.

Take `CCCCCCCCCCCOC(=O)c1cnc(Cl)cn1` [Example 25]: the minimal inhibitory concentration (MIC) is 16 µg/mL (≈ 51.1 µM) in experiment [1], 0.06 µg/mL (≈ 0.192 µM) in experiment [2] and 0.25 µg/mL (≈ 0.799 µM) in experiment [3].
